Where two headings read alike, the source gives them in different places.
Assays:
[1] = physchem; assay type: physicochemical
Method: 1 Method Description for Determination of the logP values and Mass Detection
Eluents for determination in the acidic range (pH 3.4): • Eluent A: acetonitrile+1 ml formic acid/l.
The λmax values were determined in the maxima of the chromatographic signals using the UV spectra from 200 nm to 400 nm. The mass was detected (M^+, m/z) by means of an Agilent MSD mass spectrometer.

[2] = test system: green peach aphid (Myzus persicae); assay: Myzus persicae test (spray treatment); assay type: in vivo; conditions: foliar, 144 h, read-out: efficacy in %
Method: Myzus persicae Test (Spray Treatment)
• Solvent: 78 parts by weight of acetone • 1.5 parts by weight of dimethylformamide • Emulsifier: 0.5 part by weight of alkylaryl polyglycol ether
To prepare an appropriate active ingredient preparation, 1 part by weight of active ingredient is mixed with the stated amounts of solvent and emulsifier, and the concentrate is diluted with emulsifier-containing water to the desired concentration. Discs of Chinese cabbage (Brassica pekinensis) infested by all stages of the green peach aphid (Myzus persicae) are sprayed with an active ingredient preparation of the desired concentration.
After 6 days, the efficacy in % is determined. 100% means that all of the aphids have been killed; 0% means that none of the aphids have been killed.

[3] = test system: armyworm (Spodoptera frugiperda); assay: Spodoptera frugiperda test (spray treatment); assay type: in vivo; conditions: application rate 500 g/ha; maize leaf discs sprayed; after 7 days; 100% = all caterpillars killed
Method: Spodoptera frugiperda Test (Spray Treatment)
• Solvent: 78.0 parts by weight of acetone • 1.5 parts by weight of dimethylformamide • Emulsifier: 0.5 part by weight of alkylaryl polyglycol ether
To prepare an appropriate active ingredient preparation, 1 part by weight of active ingredient is mixed with the stated amounts of solvent and emulsifier, and the concentrate is diluted with emulsifier-containing water to the desired concentration. Discs of maize leaves (Zea mays) are sprayed with an active ingredient preparation of the desired concentration and, after drying, populated with the armyworm (Spodoptera frugiperda).
After 7 days, the efficacy in % is determined. 100% means that all caterpillars have been killed; 0% means that none of the caterpillars have been killed.

[4] = reverse-phase HPLC column (C 18), pH 3.4, HPLC, reverse-phase C 18, acidic range pH 3.4, 55° C., table of compounds, read-out: logP (HCO2H)
[5] = application rate 500 g/ha, Chinese cabbage leaf discs sprayed, after 6 days, 100% = all aphids killed
[6] = reverse-phase HPLC column (C 18), pH 3.4, HPLC-MS value printed in the preparation example text, acidic range pH 3.4, read-out: logP (HCOOH)

SMILES | chromatographic logP [1, 4] | pest or weed control at 500 g/ha [2, 5] [%] | chromatographic logP [1, 6] | also measured
O=C(NCC(F)F)c1csc(-c2cccnc2)n1 [Compound 33, N-(2,2-Difluoroethyl)-2-(pyridin-3-yl)-1,3-thiazole-4-carboxamide] |  |  |  | chromatographic logP ([1]; pH 3.4, HPLC, reverse-phase C 18, acidic range pH 3.4, 55° C., table of compounds, read-out: logP (HCO2H)): 1.22; chromatographic logP ([1]; pH 3.4, HPLC-MS value printed in the preparation example text, acidic range pH 3.4, read-out: logP (HCOOH)): 1.18; pest or weed control at 500 g/ha ([2]; in Brassica rapa): 100%
CC(F)(F)CNC(=O)c1cn(-c2cccnc2)nn1 [Compound 37, N-(2,2-Difluoropropyl)-1-(pyridin-3-yl)-1H-1,2,3-triazole-4-carboxamide] | 1.21 |  | 1.25 | pest or weed control at 500 g/ha ([2]; in Brassica rapa): 100%; efficacy in % [3]: 100%
CN(C)C(=O)c1cc(-c2cccnc2)no1 [Compound 2, N,N-Dimethyl-3-(pyridin-3-yl)-1,2-oxazole-5-carboxamide] | 0.78 | 100 | 0.78 | 
O=C(NCc1ncccn1)c1cc(-c2cccnc2)no1 [Compound 3] | 0.62 | 100 |  | 
O=C(NCc1ncccn1)C1CN=C(c2cccnc2)S1 (stereo not shown) [Compound 43] |  | 100 |  | chromatographic logP ([1]; pH 3.4, logP (HCO2H)): 0.32
N#CCNC(=O)c1csc(-c2cccnc2)n1 [Compound 14] | 0.8 | 80 |  | 
O=C(NCc1cccs1)c1ccc(-c2cccnc2)o1 [Compound 17] | 1.46 | 100 |  | 
CC(F)(F)CNC(=O)c1cc(-c2cccnc2)ns1 [Compound 38, N-(2,2-Difluoropropyl)-3-(pyridin-3-yl)-1,2-thiazole-5-carboxamide] | 1.33 |  | 1.33 | pest or weed control at 500 g/ha ([2]; in Brassica rapa): 100%
CNC(=O)c1ccc(-c2cccnc2)o1 [Compound 31, N-Methyl-5-(pyridin-3-yl)furan-2-carboxamide] | 0.42 |  | 0.42 | pest or weed control at 500 g/ha ([2]; in Brassica rapa): 100%

Further lines, with some results ahead:

chromatographic logP [1, 4] | SMILES | pest or weed control at 500 g/ha [2, 5] [%] | chromatographic logP [1, 6] | also measured
1.27 | O=C(NCC=CCl)c1ccc(-c2cccnc2)o1 [Compound 18] | 90 |  | logP (HCO2H) ([1]; HPLC, reverse-phase C 18, acidic range pH 3.4, 55° C., table of compounds): 1.33
1.39 | O=C(NCC1CC1)c1ccc(-c2cccnc2)o1 [Compound 30] | 100 |  | 
1.13 | O=C(NCC(F)(F)F)c1coc(-c2cccnc2)c1 [Compound 12, 5-(Pyridin-3-yl)-N-(2,2,2-trifluoroethyl)furan-3-carboxamide] | 90 | 1.13 | 
0.51 | CN(C)C(=O)c1ccc(-c2cccnc2)o1 [Compound 7] | 100 |  | 
1.23 | CCN(CC)C(=O)c1ccc(-c2cccnc2)o1 [Compound 6] | 100 |  | 
1.28 | C=C(Cl)CNC(=O)c1ccc(-c2cccnc2)o1 [Compound 19] | 100 |  | 
0.83 | CCCNC(=O)c1ccc(-c2cccnc2)o1 [Compound 32] | 100 |  | 

Source: patent US9233951B2, “Heterocyclic compounds as pesticides” (Bayer Intellectual Property GmbH, priority 2010, dated 2016)
